Laboratory results as given in article PMC6052345, “Functional Analysis of the Chemosensory Protein MsepCSP8 From the Oriental Armyworm Mythimna separata” (Frontiers in Physiology, 2018).
pIC50, pKi: −log10 of the molar value. Where two headings read alike, the source gives them in different places.

Target: MsepCSP8 (Mythimna separata, UniProt A0A1V1WC03)
Test: Fluorescence competitive binding assay with 1-NPN as fluorescent probe
Settings: for pIC50: displacement of 1-NPN; for pKi: calculated from IC50; for binding affinity to MsepCSP8 in words: discussion of Table 1, pH not stated
Protocol: The expressed protein was obtained in soluble form in the supernatant, and purification was accomplished using a Ni affinity chromatography column (GE Healthcare, Uppsala, Sweden). Bound protein was eluted by digestion with recombinant bovine enterokinase at 26°C for 15 h to remove the His-tag. Expression and purification were verified by 15% sodium dodecyl sulfate-polyacrylamide gel electrophoresis (SDS-PAGE), and protein concentration was measured as described by [Cao et al. (2017)]. Dialysis of purified protein was carried out in 30 mM Tris-HCl buffer [Tris(hydroxymethyl)aminomethane] at pH 7.4 and pH 5.0 before fluorescence binding assays, and protein was stored at -80°C until use.
Fluorescence competitive binding assays were performed to determine the binding affinity of MsepCSP8 for 56 ligands using N-phenyl-1-naphthylamine (1-NPN) as a fluorescent probe. Stock solutions of ligands were prepared in spectrophotometric-grade methanol. […] Mixtures of 1-NPN and protein were excited at 337 nm wavelength, and emission spectra were recorded from 360 to 600 nm using a fluorescence spectrophotometer (RF-5301PC Shimadzu, Kyoto, Japan). Binding of selected ligands with MsepCSP8 (1:1 protein:ligand stoichiometry) was evaluated using 1-NPN as a fluorescent probe, with the final concentration of the product ranging from 0 to 20 μM. […] Three independent measurements were made for all experiments. The binding affinity (Ki) of MsepCSP8 for all tested ligands was calculated based on IC50 values as follows:
Ki=IC50/(1 + [1−NPN]/K1–NPN)
where [1-NPN] is the free concentration of 1-NPN, and K1-NPN is the dissociation constant of the complex of MsepCSP8 and 1-NPN.

MsepCSP8, sequence (A0A1V1WC03 entry or part of it): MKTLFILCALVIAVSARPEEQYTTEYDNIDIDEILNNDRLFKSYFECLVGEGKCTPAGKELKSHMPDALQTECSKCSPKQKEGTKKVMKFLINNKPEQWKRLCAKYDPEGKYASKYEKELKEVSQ

## CC1=CCC2C(C1)C2(C)C (single isomer, unassigned; (+)) [(+)-3-Carene]
  binding affinity to MsepCSP8 in words: high binding affinities
pH 5.0, read-out: Ki
  pKi: 4.88
pH 5.0, read-out: IC50
  pIC50: 4.75
pH 7.4, read-out: Ki
  pKi: 5.03
pH 7.4, read-out: IC50
  pIC50: 4.87

## C=CC(C)(O)CCC=C(C)C (stereo not shown) [Linalool]
IC50, pH 5.0
  pIC50: 4.60
IC50, pH 7.4
  pIC50: 4.84
Ki, pH 5.0
  pKi: 4.73
Ki, pH 7.4
  pKi: 4.99

## (–)-Limonene
pH 5.0, read-out: Ki
  pKi: 4.95
pH 5.0, read-out: IC50
  pIC50: 4.82
pH 7.4, read-out: Ki
  pKi: 4.55
pH 7.4, read-out: IC50
  pIC50: 4.39

## CC1=CC(=O)[C@H]2C[C@@H]1C2(C)C [(S)-(-)-verbenone]
  binding affinity to MsepCSP8 in words: high binding affinities
pH 5.0, read-out: Ki
  pKi: 4.79
pH 5.0, read-out: IC50
  pIC50: 4.67
pH 7.4, read-out: Ki
  pKi: 5.03
pH 7.4, read-out: IC50
  pIC50: 4.88

## CC1=CC[C@@H]2[C@@H]3[C@H]1[C@@]2(C)CCCC3(C)C [(+)-α-longipinene]
  binding affinity to MsepCSP8 in words: high binding affinities
pH 5.0, read-out: Ki
  pKi: 4.97
pH 5.0, read-out: IC50
  pIC50: 4.84
pH 7.4, read-out: Ki
  pKi: 5.01
pH 7.4, read-out: IC50
  pIC50: 4.85

## CC/C=C\CCO [Cis-3-hexen-1-ol]
IC50, pH 5.0
  pIC50: 4.53
IC50, pH 7.4
  pIC50: 4.67
Ki, pH 5.0
  pKi: 4.65
Ki, pH 7.4
  pKi: 4.82

## CCC(O)CC [3-Pentanol]
IC50, pH 5.0
  pIC50: 4.76
IC50, pH 7.4
  pIC50: 4.80
Ki, pH 5.0
  pKi: 4.89
Ki, pH 7.4
  pKi: 4.95

## Farnesene
pH 5.0, read-out: IC50
  pIC50: 4.70
pH 7.4, read-out: Ki
  pKi: 4.88
pH 7.4, read-out: IC50
  pIC50: 4.73

## C=CC(C)(O)CCC=C(C)CCC=C(C)C (mixture of isomers) [Nerolidol]
IC50, pH 5.0
  pIC50: 4.81
IC50, pH 7.4
  pIC50: 4.83
Ki, pH 5.0
  pKi: 4.94
Ki, pH 7.4
  pKi: 4.98

## CCCCCCCCCCCCCCCCCCCCCCCCC [Pentacosane]
IC50, pH 5.0
  pIC50: 4.95
IC50, pH 7.4
  pIC50: 4.61
Ki, pH 5.0
  pKi: 5.08
Ki, pH 7.4
  pKi: 4.77

## C/C1=C\CC/C(C)=C/CC(C)(C)/C=C/C1 [α-Humulene]
pH 5.0, read-out: Ki
  pKi: 4.76
pH 5.0, read-out: IC50
  pIC50: 4.64
pH 7.4, read-out: Ki
  pKi: 4.89
pH 7.4, read-out: IC50
  pIC50: 4.73

## CCC/C=C/COC(C)=O [E-2-Hexen-1-ol acetate]
IC50, pH 5.0
  pIC50: 4.20
IC50, pH 7.4
  pIC50: 4.84
Ki, pH 5.0
  pKi: 4.33
Ki, pH 7.4
  pKi: 4.99

## CC12CCC(CC1)C(C)(C)O2 [Eucalyptol]
IC50, pH 5.0
  pIC50: 4.06
IC50, pH 7.4
  pIC50: 4.60
Ki, pH 5.0
  pKi: 4.18
Ki, pH 7.4
  pKi: 4.75

## (+)-Fenchone
pH 5.0, read-out: Ki
  pKi: 4.83
pH 5.0, read-out: IC50
  pIC50: 4.70
pH 7.4, read-out: Ki
  pKi: 4.68
pH 7.4, read-out: IC50
  pIC50: 4.53

## CCCCCCCCC=O [Nonanal]
IC50, pH 5.0
  pIC50: 4.83
IC50, pH 7.4
  pIC50: 4.90
Ki, pH 5.0
  pKi: 4.96
Ki, pH 7.4
  pKi: 5.05
  binding affinity to MsepCSP8 in words: high affinities

## C=CC(=C)CCC=C(C)C [Myrcene]
IC50, pH 5.0
  pIC50: 4.76
IC50, pH 7.4
  pIC50: 4.78
Ki, pH 5.0
  pKi: 4.89
Ki, pH 7.4
  pKi: 4.93

## CC/C=C\CCOC(C)=O [Cis-3-hexenyl acetate]
IC50, pH 5.0
  pIC50: 4.61
IC50, pH 7.4
  pIC50: 4.68
Ki, pH 5.0
  pKi: 4.74
Ki, pH 7.4
  pKi: 4.83

## C=C(C)[C@H]1CC=C(C)CC1 [R-(+)-Limonene]
pH 5.0, read-out: Ki
  pKi: 4.85
pH 5.0, read-out: IC50
  pIC50: 4.72
pH 7.4, read-out: Ki
  pKi: 4.78
pH 7.4, read-out: IC50
  pIC50: 4.63

## CCCCCCCCCCCCCCCCCCCC [Eicosane]
IC50, pH 5.0
  pIC50: 4.33
IC50, pH 7.4
  pIC50: 4.32
Ki, pH 5.0
  pKi: 4.46
Ki, pH 7.4
  pKi: 4.47

## CCOC(C)=O [Ethyl acetate]
IC50, pH 5.0
  pIC50: 4.54
IC50, pH 7.4
  pIC50: 4.17
Ki, pH 5.0
  pKi: 4.66
Ki, pH 7.4
  pKi: 4.33

## CC1(C)CCC[C@@]2(C)[C@@H]3CC4C([C@@H]31)C42C (single isomer, unassigned; (+)) [(+)-Longicyclene]
pH 5.0, read-out: Ki
  pKi: 3.53
pH 5.0, read-out: IC50
  pIC50: 3.40
pH 7.4, read-out: Ki
  pKi: 4.55
pH 7.4, read-out: IC50
  pIC50: 4.40

## C=C(C)C1CCC2(C)OC2C1 (single isomer, unassigned; (-)) [(–)-Limonene oxide]
pH 5.0, read-out: Ki
  pKi: 4.46
pH 5.0, read-out: IC50
  pIC50: 4.33
pH 7.4, read-out: Ki
  pKi: 4.91
pH 7.4, read-out: IC50
  pIC50: 4.76

## CCCCCCCCCC(C)=O [2-Undecanone]
IC50, pH 5.0
  pIC50: 4.65
IC50, pH 7.4
  pIC50: 4.45
Ki, pH 5.0
  pKi: 4.78
Ki, pH 7.4
  pKi: 4.60

## CCCCCCCCCCCC=O [Dodecyl aldehyde]
pH 5.0, read-out: Ki
  pKi: 4.56
pH 5.0, read-out: IC50
  pIC50: 4.43
pH 7.4, read-out: Ki
  pKi: 4.76
pH 7.4, read-out: IC50
  pIC50: 4.61
